Results taken from US20130245006A1, “NOVEL INDOLIZINE DERIVATIVES, AND PREPARATION AND THERAPEUTIC USE THEREOF” (SANOFI, priority 2010, published 2013).
≈ marks a conversion by molar mass, not a printed value. Structures can show the parent of a compound that is named as a salt.

test: Solubility by HPLC relative to a reference sample; format: physicochemical; settings: aqueous buffer, phosphate buffer, at the pH given
Method: The evaluation of the solubility of the compounds of the invention is carried out at pH 4 (using a phosphate buffer, […]) by HPLC using an H2O/CH3CN/CH3SO3H gradient, relative to a reference sample (a dilute solution of the product to be evaluated which serves as an internal control). The solubility S results are expressed in mg/ml. Generally, the compounds of the present invention have a solubility S≧4 mg/ml at pH≧4. Among them, mention may be made of the solubilities of the following compounds in the table below: […]

| Structure (SMILES) | solubility [µg/mL] |
| --- | --- |
| CCc1cc2cc(C(=O)N(CC)Cc3cc(C)on3)ccn2c1C(=O)c1ccc(CCCNC(C)(C)C)cc1 [compound 46, 3-[4-(3-tert-Butylaminopropyl)benzoyl]-2-ethylindolizine-7-carboxylic acid ethyl(5-methylisoxazol-3-ylmethyl)amide] | 1730 (≈ 3.27 mM) |
| CCc1cc2cc(C(=O)N3CCNC(=O)CC3)ccn2c1C(=O)c1ccc(CCCNC2CCCC2)cc1 [compound 53, 1-{3-[4-(3-Cyclopentylaminopropyl)benzoyl]-2-ethylindolizine-7-carbonyl}[1,4]diazepam-5-one] | 6930 (≈ 13.5 mM) |
| CCCN(CCC)CCCc1ccc(C(=O)c2c(CC)cc3cc(C(=O)N(CC(=O)OC)C(C)C)ccn23)cc1 [compound 61, ({3-[4-(3-Dipropylamino-propyl)benzoyl]-2-ethylindolizine-7-carbonyl}isopropylamino)acetic acid methyl ester] | 8930 (≈ 16.3 mM) |
| CCCCc1cc2cc(C(=O)N(CC(=O)OC)C(C)C)ccn2c1C(=O)c1ccc(CCCN(CC)CCCC)cc1 [compound 62, [(2-Butyl-3-{4-[3-(butylethylamino)propyl]benzoyl}indolizine-7-carbonyl)isopropylamino]acetic acid methyl ester] | 5300 (≈ 9.2 mM) |
| CCCCc1cc2cc(C(=O)N(CC(=O)O)C(C)C)ccn2c1C(=O)c1ccc(CCCN(CC)CC)cc1 [compound 75, ({2-Butyl-3-[4-(3-diethylamino-propyl)benzoyl]indolizine-7-carbonyl}isopropylamino)acetic acid] | 8400 (≈ 15.7 mM) |
| CCc1cc2cc(C(=O)N(CC(=O)O)C(C)C)ccn2c1C(=O)c1ccc(CCCNC(C)(C)C)cc1 [compound 76, ({3-[4-(3-tert-Butylamino-propyl)benzoyl]-2-ethylindolizine-7-carbonyl}isopropylamino)acetic acid] | 6200 (≈ 12.3 mM) |
| CCc1cc2cc(C(=O)N(CC(=O)OC)C(C)C)ccn2c1C(=O)c1ccc(CCCC2(NC(C)C)CCCC2)cc1 [compound 79, [(2-Ethyl-3-{4-[3-(1-isopropylamino-cyclopentyl)propyl]benzoyl}indolizine-7-carbonyl)isopropylamino]acetic acid methyl ester] | 8020 (≈ 14 mM) |
| CCCCc1cc2cc(C(=O)N(CC)Cc3nc(C)no3)ccn2c1C(=O)c1ccc(C2CCNCC2)cc1 [compound 80, 2-Butyl-3-(4-piperidin-4-ylbenzoyl)indolizine-7-carboxylic acid ethyl(3-methyl-[1,2,4]oxadizol-5-ylmethyl)amide] | 4200 (≈ 7.96 mM) |

test: not given; settings: not given

| Structure (SMILES) | melting point [°C] |
| --- | --- |
| CCc1cc2cc(C(=O)N(CC)Cc3nnn(C)n3)ccn2c1C(=O)c1ccc(CCCNC(C)(C)C)cc1 (as salt: hydrochloride) [Compound No. 17, 3-[4-(3-tert-Butylaminopropyl)benzoyl]-2-ethylindolizine-7-carboxylic acid ethyl(2-methyl-2H-tetrazol-5-ylmethyl)amide] | 172 |
| CCc1cc2cc(C(=O)N(CC)Cc3nnn(C)n3)ccn2c1C(=O)c1ccc(CCC(C)(C)NC(C)(C)C)cc1 (as salt: hydrochloride) [Compound No. 18, 3-[4-(3-tert-Butylamino-3-methylbutyl)benzoyl]-2-ethylindolizine-7-carboxylic acid ethyl(2-methyl-2H-tetrazol-5-ylmethyl)amide] | 122 |
| CCc1cc2cc(C(=O)N(CC(=O)OC)C(C)C)ccn2c1C(=O)c1ccc(CCC(C)(C)NC2CCCC2)cc1 (as salt: hydrochloride) [Compound No. 19, ({3-[4-(3-Cyclopentylamino-3-methylbutyl)benzoyl]-2-ethylindolizine-7-carbonyl}isopropylamino)acetic acid methyl ester] | 245 |
| CCN[C@@H](CCc1ccc(C(=O)c2c(CC)cc3cc(C(=O)N(CC)Cc4nnn(C)n4)ccn23)cc1)C(C)C (as salt: hydrochloride) [Compound No. 20, 2-Ethyl-3-[4-((S)-3-ethylamino-4-methylpentyl)benzoyl]indolizine-7-carboxylic acid ethyl(2-methyl-2H-tetrazol-5-ylmethyl)amide] | 100 |
| CCOCCN(CC)C(=O)c1ccn2c(C(=O)c3ccc(CCCNC4CCCC4)cc3)c(CC)cc2c1 [compound 37, 3-[4-(3-Cyclopentylaminopropyl)benzoyl]-2-ethylindolizine-7-carboxylic acid (2-ethoxyethyl)ethylamide] | 146.4 |
| CCc1cc2cc(C(=O)N3CCNC(=O)C3)ccn2c1C(=O)c1ccc(CCCNC(C)(C)C)cc1 [compound 38, 4-{3-[4-(3-tert-Butylaminopropyl)benzoyl]-2-ethylindolizine-7-carbonyl}piperazin-2-one] | 122 |
| CCN(Cc1nnn(C)n1)C(=O)c1ccn2c(C(=O)c3ccc(CCCNC(C)(C)C)cc3)c(C3CCC3)cc2c1 [compound 42, 3-[4-(3-tert-Butylaminopropyl)benzoyl]-2-cyclobutylindolizine-7-carboxylic acid ethyl(2-methyl-2H-tetrazol-5-ylmethyl)amide] | 195 |
| CCc1cc2cc(C(=O)N(CC)Cc3ccn(C)n3)ccn2c1C(=O)c1ccc(CCCNC(C)(C)C)cc1 [compound 44, 3-[4-(3-tert-Butylaminopropyl)benzoyl]-2-ethylindolizine-7-carboxylic acid ethyl(1-methyl-1H-pyrazol-3-ylmethyl)amide] | 149 |
| CCc1cc2cc(C(=O)N(CC)Cc3cnn(C)c3)ccn2c1C(=O)c1ccc(CCCNC(C)(C)C)cc1 [compound 45, 3-[4-(3-tert-Butylaminopropyl)benzoyl]-2-ethylindolizine-7-carboxylic acid ethyl(1-methyl-1H-pyrazol-4-ylmethyl)amide] | 173 |
| CCc1cc2cc(C(=O)N(CC)Cc3cc(C)on3)ccn2c1C(=O)c1ccc(CCCNC(C)(C)C)cc1 [compound 46, 3-[4-(3-tert-Butylaminopropyl)benzoyl]-2-ethylindolizine-7-carboxylic acid ethyl(5-methylisoxazol-3-ylmethyl)amide] | 175 |
| CCc1cc2cc(C(=O)OCc3nnn(C)n3)ccn2c1C(=O)c1ccc(CCCNC(C)(C)C)cc1 [compound 49, 3-[4-(3-tert-Butylaminopropyl)benzoyl]-2-ethylindolizine-7-carboxylic acid 2-methyl-2H-tetrazol-5-ylmethyl ester] | 203 |
| CCc1cc2cc(C(=O)O[C@H]3CNC(=O)C3)ccn2c1C(=O)c1ccc(CCCNC(C)(C)C)cc1 [compound 52, 3-[4-(3-tert-Butylaminopropyl)benzoyl]-2-ethylindolizine-7-carboxylic acid (R)-5-oxopyrrolidin-3-yl ester] | 162 |
| CCc1cc2cc(C(=O)N3CCNC(=O)CC3)ccn2c1C(=O)c1ccc(CCCNC2CCCC2)cc1 [compound 53, 1-{3-[4-(3-Cyclopentylaminopropyl)benzoyl]-2-ethylindolizine-7-carbonyl}[1,4]diazepam-5-one] | 176 |
| CCCCc1cc2cc(C(=O)N(CC)CC)ccn2c1C(=O)c1ccc(C2CCNCC2)cc1 [compound 66, 2-Butyl-3-(4-piperidin-4-yl-benzoyl) indolizine-7-carboxylic acid diethylamide] | 149.6 |
| CCN(Cc1nnn(C)n1)C(=O)c1ccn2c(C(=O)c3ccc(CCCNC(C)(C)C)cc3)c(C)cc2c1 [compound 78, 3-[4-(3-tert-Butylaminopropyl)benzoyl]-2-methylindolizine-7-carboxylic acid ethyl(2-methyl-2H-tetrazol-5-ylmethyl)amide] | 153 |
